# Measured values published in the NIST ThermoML archive (doi:10.1007/s10765-009-0566-6).
# ± gives the expanded uncertainty stated by the source.
# Test: osmotic coefficient (dimensionless); mn = molality of the nth substance listed, in mol/kg
# Settings: Liquid, vapor pressure osmometry
smiles,measurement,setting,value
CCCCCn1cc[n+](C)c1.[Cl-] [1-methyl-3-pentylimidazolium chloride] + O,osmotic coefficient,"298.15 K, m1 = 0.014",0.931 ± 0.019
same,osmotic coefficient,"298.15 K, m1 = 0.0263",0.889 ± 0.018
same,osmotic coefficient,"298.15 K, m1 = 0.0391",0.882 ± 0.018
same,osmotic coefficient,"298.15 K, m1 = 0.0518",0.871 ± 0.018
same,osmotic coefficient,"298.15 K, m1 = 0.0634",0.863 ± 0.018
same,osmotic coefficient,"298.15 K, m1 = 0.084",0.852 ± 0.018
same,osmotic coefficient,"298.15 K, m1 = 0.1007",0.841 ± 0.018
same,osmotic coefficient,"298.15 K, m1 = 0.1369",0.821 ± 0.018
same,osmotic coefficient,"298.15 K, m1 = 0.1784",0.805 ± 0.018
same,osmotic coefficient,"298.15 K, m1 = 0.2198",0.797 ± 0.017
same,osmotic coefficient,"298.15 K, m1 = 0.2765",0.79 ± 0.017
same,osmotic coefficient,"298.15 K, m1 = 0.3517",0.781 ± 0.017
same,osmotic coefficient,"298.15 K, m1 = 0.4043",0.768 ± 0.017
same,osmotic coefficient,"298.15 K, m1 = 0.5014",0.75 ± 0.017
same,osmotic coefficient,"298.15 K, m1 = 0.5758",0.735 ± 0.017
same,osmotic coefficient,"298.15 K, m1 = 0.8464",0.722 ± 0.017
same,osmotic coefficient,"298.15 K, m1 = 1.002",0.71 ± 0.018
same,osmotic coefficient,"298.15 K, m1 = 1.376",0.697 ± 0.018
same,osmotic coefficient,"298.15 K, m1 = 1.797",0.687 ± 0.018
same,osmotic coefficient,"308.15 K, m1 = 0.014",0.938 ± 0.019
same,osmotic coefficient,"308.15 K, m1 = 0.0263",0.905 ± 0.018
same,osmotic coefficient,"308.15 K, m1 = 0.0391",0.887 ± 0.018
same,osmotic coefficient,"308.15 K, m1 = 0.0518",0.878 ± 0.018
same,osmotic coefficient,"308.15 K, m1 = 0.0634",0.868 ± 0.018
same,osmotic coefficient,"308.15 K, m1 = 0.084",0.858 ± 0.018
same,osmotic coefficient,"308.15 K, m1 = 0.1007",0.845 ± 0.018
same,osmotic coefficient,"308.15 K, m1 = 0.1369",0.829 ± 0.018
same,osmotic coefficient,"308.15 K, m1 = 0.1784",0.812 ± 0.018
same,osmotic coefficient,"308.15 K, m1 = 0.2198",0.803 ± 0.018
same,osmotic coefficient,"308.15 K, m1 = 0.2765",0.795 ± 0.017
same,osmotic coefficient,"308.15 K, m1 = 0.3517",0.788 ± 0.017
same,osmotic coefficient,"308.15 K, m1 = 0.4043",0.78 ± 0.017
same,osmotic coefficient,"308.15 K, m1 = 0.5014",0.753 ± 0.017
same,osmotic coefficient,"308.15 K, m1 = 0.5758",0.742 ± 0.017
same,osmotic coefficient,"308.15 K, m1 = 0.8464",0.726 ± 0.017
same,osmotic coefficient,"308.15 K, m1 = 1.002",0.715 ± 0.018
same,osmotic coefficient,"308.15 K, m1 = 1.376",0.704 ± 0.018
same,osmotic coefficient,"308.15 K, m1 = 1.797",0.691 ± 0.018
same,osmotic coefficient,"318.15 K, m1 = 0.014",0.941 ± 0.019
same,osmotic coefficient,"318.15 K, m1 = 0.0263",0.911 ± 0.018
same,osmotic coefficient,"318.15 K, m1 = 0.0391",0.903 ± 0.018
same,osmotic coefficient,"318.15 K, m1 = 0.0518",0.885 ± 0.018
same,osmotic coefficient,"318.15 K, m1 = 0.0634",0.878 ± 0.018
same,osmotic coefficient,"318.15 K, m1 = 0.084",0.865 ± 0.018
same,osmotic coefficient,"318.15 K, m1 = 0.1007",0.854 ± 0.018
same,osmotic coefficient,"318.15 K, m1 = 0.1369",0.845 ± 0.018
same,osmotic coefficient,"318.15 K, m1 = 0.1784",0.831 ± 0.018
same,osmotic coefficient,"318.15 K, m1 = 0.2198",0.822 ± 0.018
same,osmotic coefficient,"318.15 K, m1 = 0.2765",0.803 ± 0.018
same,osmotic coefficient,"318.15 K, m1 = 0.3517",0.794 ± 0.017
same,osmotic coefficient,"318.15 K, m1 = 0.4043",0.784 ± 0.017
same,osmotic coefficient,"318.15 K, m1 = 0.5014",0.76 ± 0.017
same,osmotic coefficient,"318.15 K, m1 = 0.5758",0.748 ± 0.017
same,osmotic coefficient,"318.15 K, m1 = 0.8464",0.735 ± 0.017
same,osmotic coefficient,"318.15 K, m1 = 1.002",0.723 ± 0.017
same,osmotic coefficient,"318.15 K, m1 = 1.376",0.711 ± 0.018
same,osmotic coefficient,"318.15 K, m1 = 1.797",0.697 ± 0.018
same,osmotic coefficient,"328.15 K, m1 = 0.014",0.949 ± 0.019
same,osmotic coefficient,"328.15 K, m1 = 0.0263",0.923 ± 0.019
same,osmotic coefficient,"328.15 K, m1 = 0.0391",0.908 ± 0.018
same,osmotic coefficient,"328.15 K, m1 = 0.0518",0.897 ± 0.018
same,osmotic coefficient,"328.15 K, m1 = 0.0634",0.886 ± 0.018
same,osmotic coefficient,"328.15 K, m1 = 0.084",0.87 ± 0.018
same,osmotic coefficient,"328.15 K, m1 = 0.1007",0.866 ± 0.018
same,osmotic coefficient,"328.15 K, m1 = 0.1369",0.849 ± 0.018
same,osmotic coefficient,"328.15 K, m1 = 0.1784",0.837 ± 0.018
same,osmotic coefficient,"328.15 K, m1 = 0.2198",0.828 ± 0.018
same,osmotic coefficient,"328.15 K, m1 = 0.2765",0.809 ± 0.018
same,osmotic coefficient,"328.15 K, m1 = 0.3517",0.799 ± 0.017
same,osmotic coefficient,"328.15 K, m1 = 0.4043",0.79 ± 0.017
same,osmotic coefficient,"328.15 K, m1 = 0.5014",0.771 ± 0.017
same,osmotic coefficient,"328.15 K, m1 = 0.5758",0.756 ± 0.017
same,osmotic coefficient,"328.15 K, m1 = 0.8464",0.739 ± 0.017
same,osmotic coefficient,"328.15 K, m1 = 1.002",0.73 ± 0.017
same,osmotic coefficient,"328.15 K, m1 = 1.376",0.718 ± 0.017
same,osmotic coefficient,"328.15 K, m1 = 1.797",0.704 ± 0.018
